One test deals with T1, human MTAP (Homo sapiens, UniProt Q13126).
T1 construct: inferred from pQE32 vector and Ni-NTA purification) (N); made in house; host or cells: E. coli
T1 sequence (Q13126 1-283): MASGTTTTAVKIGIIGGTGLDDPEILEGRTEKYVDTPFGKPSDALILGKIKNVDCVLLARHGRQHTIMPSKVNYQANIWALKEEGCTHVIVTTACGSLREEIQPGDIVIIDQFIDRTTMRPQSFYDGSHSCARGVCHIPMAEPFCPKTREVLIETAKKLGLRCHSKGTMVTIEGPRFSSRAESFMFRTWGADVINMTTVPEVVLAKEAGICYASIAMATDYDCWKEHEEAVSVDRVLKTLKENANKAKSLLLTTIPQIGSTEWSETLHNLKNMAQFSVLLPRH
Nature of the test: Enzyme inhibition assay, MTAP (slow-onset inhibition constants). It is filed as biochemical. The method, then: Ki as shown in Tables 1 and 2 is the initial inhibition constant formed by the enzyme-inhibitor complex, and Ki* is the equilibrium dissociation constant for inhibition that is observed following a period of slow-onset, tight binding inhibition. Ki* is the biologically effective constant.
Enzyme assays were conducted to assess the effectiveness of selected compounds of the invention as inhibitors of MTAP and MTAN.
Enzymes.—The human MTAP protein was cloned into pQE32 expression vector and transformed into E. coli. Induction cultures containing 1 L (25 mg/L) and 50 μg/mL ampicillin were inoculated with 1 mL overnight grown starter-culture and incubated at 37° C. When the cultures reached an OD of ≈0.6 they were induced with 1.5 mM IPTG for 6 to 8 hours. Cells were harvested by centrifugation at 5000 rpm for 30 min, and subsequently resuspended in a buffer (20 mM imidazole, 300 mM NaCl, 0.2 mM phenylmethylsulfonyl fluoride (PMSF), 100 mM Tris, pH 8.0) containing a small amount of lysozyme to weaken the cell membrane. Cells were lysed with a French press. The insoluble material was removed by high-speed centrifugation. The cell extract was further clarified with 35% ammonium sulfate precipitation followed by high-speed centrifugation. The clarified cell extract was then applied to a 5 mL Ni-NTA column that had previously been equilibrated with the binding buffer. Further chromatographic steps were carried out by FPLC. The column was washed with 10 volumes of 50 mM imidazole, 300 mM NaCl, and 100 mM Tris, pH 8.0, and the protein was eluted with a buffer containing a 50–250 mM gradient of imidazole, 300 mM NaCl, 1 M Tris, pH 8.0. The purity of the protein was verified by running polyacrylamide gel followed by Coomassie staining. The protein was subsequently dialyzed in 50 mM NaCl, 2 mM dithiothreitol (DTT) and 50 mM Tris, pH 7.4, and was concentrated to 10 mg/mL. The purified protein was stored at −80° C. in 100 μL to 150 μL aliquots.
Inhibitors.—Inhibitor concentrations were determined by the UV absorbance spectrum using the published millimolar extinction coefficients for 9-dazadenine of 8.5 at 275 nm at pH 7.0.
Assays.—The direct spectrophotometric assay for the conversion of MTA into adenine was measured as the decrease in absorbance at 274 nm. At 274 nm, Δε between MTA and adenine is at a maximum and produces a spectral change of 1.6 absorbance units/cm/mM (DeWolf, W. E. Jr., Fullin, F. A., and Schramm, V. L. (1979) J. Biol. Chem. 254, 10868–10875)
This concentration corresponds to an OD of 0.7–1.1 at 274 nM. The formation of product was monitored as a decrease in absorbance at 274 nm. Conditions for Ki* determination used high concentrations of substrate. Two controls, one having no inhibitor and the other no enzyme were included in the experiment. The Ki values MTAP for the various compounds were calculated by fitting in the ratio of initial rates in the presence of inhibitor to without any inhibitor versus the inhibitor concentration, for the known Km and substrate concentration into the following expression.
Where Vo′ is the rate in the presence of inhibitor • Vo rate in the absence of inhibitor • [I] inhibitor concentration • And [S] is the substrate concentration
And the Ki* was calculated by fitting to the following expression
Where Vs′ is the steady-state rate following attainment of equilibrium in the presence inhibitor, and Vs is the steady-state rate in the control having no inhibitor. Both these equations are valid for competitive type inhibition.

Test [1] addresses T2, MTAP activity in mouse blood (Mus musculus, UniProt Q9CQ65).
T2 construct: from tissue; host or cells: mouse blood
T2 sequence (Q9CQ65 1-283): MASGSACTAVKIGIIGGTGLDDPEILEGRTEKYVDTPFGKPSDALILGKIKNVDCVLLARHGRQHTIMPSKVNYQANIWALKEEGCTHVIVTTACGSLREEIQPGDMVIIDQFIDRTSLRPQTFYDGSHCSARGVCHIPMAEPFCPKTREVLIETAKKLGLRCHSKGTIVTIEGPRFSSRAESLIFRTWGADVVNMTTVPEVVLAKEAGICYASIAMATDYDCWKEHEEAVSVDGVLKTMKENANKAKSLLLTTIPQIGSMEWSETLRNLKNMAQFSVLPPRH
Nature of the test: MTAP activity in blood of treated mice. It is filed as in vivo. The settings on record: interperitoneal injection of 10 micromoles; blood sampled 30 min following injection. How it is done:
5′-Methylthio-Immucillin-A (5′-methylthio-ImmA) (10 micromoles) was administered to mice orally, by interperitoneal injection or by intravenous injection. Following 30 to 60 min, blood was collected or mice were sacrificed and the liver removed for tissue analysis. MTAP activity in mouse blood was measured by the conversion of radioactive MTA to radioactive 5-methylthio-α-D-ribose 1-phosphate (MTR-1P). The assay mixture contained 50 mM phosphate buffer, 1 mM dithiothreitol, 26 μM [5′-^14C]MTA with specific radioactivity of 2 μCi/μmole, 0.5% triton X-100, and the desired amount of tissue sample, in a total volume of 100 μL. Reactions were stopped at various times by the addition of perchloric acid to decrease the pH to 2.0. The protein precipitate was removed by centrifugation, and the supernatant was neutralized to near pH 7 before being placed on a charcoal column. The column was eluted with buffer near pH 7. The product MTR-1P elutes, while unreacted [5′-^14C]MTA remains on the column. The amount of MTAP activity from control and treated mice is compared.

Where two headings read alike, the source gives them in different places.

For `CSC[C@H]1N[C@@H](c2c[nH]c3c(N)ncnc23)C(O)[C@H]1O` (some centres unmarked) [5′-methylthio-ImmA], the Ki at human MTAP (MTA at 150 μM, Km=2.5 μM, read-out: Ki (FIG. 1, inhibition of MTAP at varying concentrations)) came out at 0.107 nM; at human MTAP (MTAP, equilibrium dissociation constant after slow-onset, tight binding inhibition, read-out: Ki*), 0.09 ± 0.018 nM; on human MTAP (MTAP, initial inhibition constant, read-out: Ki) it was 5 ± 0.5 nM. On human MTAP (MTAP, equilibrium dissociation constant after slow-onset, tight binding inhibition), the “Ki*” value is “in the pM range”. The “inhibition of MTAP in mouse blood compared to control blood” value in test [1] was above 90%.

The values above are taken from patent US7098334B2 (Industrial Research Limited, priority 2002, dated 2006).
